Here are results for four compounds from ChEMBL document CHEMBL1201862, “PubChem BioAssay data set” (2004).

Among the test systems are 786-0; A498; CAKI-1; CCRF-CEM; DLD-1; DU-145; EKVX; HCT-116; HOP-62; LOX IMVI; MDA-MB-231; MOLT-4; Malme-3M; OVCAR-5; PC-3; SF-268; SK-MEL-2; SNB-19; U-251; UACC-62.
Common to all, as to test: DTP human tumour cell line panel, 48 h

One may read the GI50 as the concentration that inhibits growth by half.

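1) Cells in 96-well plates. 2) Compound, 48 h, 5 concentrations. 3) Linear interpolation between surrounding doses. 4) Unreached endpoint = highest concentration. At the GI50, growth is halved.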 Calls of active or inactive are those of the source. Rule as the data show it: active = GI50 up to about 1.1 µM and inactive = higher.

In the case of `Nc1ccn(C2OC(COC(=O)C34CC5CC(CC(C5)C3)C4)C(O)C2O)c(=O)n1` (centres undefined), the GI50 was > 100 µM (inactive) in the test on 786-0; > 45.5 µM (inactive) with A498; > 100 µM (inactive) in the test with CAKI-1; 0.101 µM (active) in the test on CCRF-CEM; > 100 µM (inactive) in the test with DLD-1; > 100 µM (inactive) in the test on DU-145. In addition, the GI50 in the test with EKVX is > 100 µM (inactive); in the test with HCT-116, 2.75 µM (inactive); in the test on HOP-62, 0.973 µM (active); with LOX IMVI it was 7.01 µM (inactive); in the test with MDA-MB-231, > 100 µM (inactive); in the test with MOLT-4 it was 0.0679 µM (active). Besides, the GI50 in the test with Malme-3M was > 100 µM (inactive); with OVCAR-5, > 100 µM (inactive); in the test with PC-3 it was > 100 µM (inactive); in the test on SF-268, > 50.5 µM (inactive); with SK-MEL-2, > 100 µM (inactive); in the test with SNB-19, > 79.8 µM (inactive). Further, the GI50 with U-251 and in the test with UACC-62 was > 100 µM (inactive) throughout.
As for `CCOC(=O)CCC(NC(=O)c1ccc(/N=C/c2nc3ccccc3nc2-c2ccccc2)cc1)C(=O)OCC` (centres undefined), the GI50 in the test with 786-0, with A498, with CAKI-1, in the test with CCRF-CEM, with DLD-1 and in the test with EKVX was > 100 µM (inactive) in each case. The GI50 with HCT-116, in the test on HOP-62, with LOX IMVI, with MOLT-4, with Malme-3M and in the test on OVCAR-5 was > 100 µM (inactive) in each case. For the same compound, the GI50 in the test with SF-268, in the test on SK-MEL-2, in the test on SNB-19, in the test on U-251 and in the test with UACC-62 was > 100 µM (inactive) each time.
`N#Cc1nn(-c2ccc(Cl)cc2)c(=N)c2c(N)n3nc(-c4ccccc4)cc3nc12`: the GI50 with 786-0 is 38.5 µM (inactive); in the test with A498, 1 µM (active); with CAKI-1 it was 1 µM (active); in the test with CCRF-CEM, 1 µM (active); in the test with DLD-1, 1 µM (active); in the test on EKVX, 1 µM (active). Moreover, the GI50 was 1 µM (active) with HCT-116; 0.485 µM (active) in the test with HOP-62; 0.594 µM (active) in the test with LOX IMVI; 0.294 µM (active) in the test with MOLT-4; 1 µM (active) in the test with Malme-3M; 1 µM (active) in the test on OVCAR-5. Besides, the GI50 with SF-268 is 0.635 µM (active); in the test with SK-MEL-2, 1 µM (active); in the test with SNB-19, 1 µM (active); in the test with U-251 it was 0.556 µM (active); with UACC-62 it was 1 µM (active).
Turning to `c1cc2n(n1)CCN2`, the GI50 with 786-0 is 1120 µM (inactive); in the test with A498, 1150 µM (inactive); in the test on CAKI-1, 740 µM (inactive); in the test with CCRF-CEM it was 186 µM (inactive); in the test with DLD-1 it was 5420 µM (inactive); with DU-145 it was 3320 µM (inactive). Besides, the GI50 in the test on EKVX is 1770 µM (inactive); with HCT-116 it was 1950 µM (inactive); in the test with HOP-62 it was 3720 µM (inactive); with LOX IMVI, 662 µM (inactive); in the test with MDA-MB-231, > 1500 µM (inactive); in the test on MOLT-4 it was 348 µM (inactive). The GI50 was 3000 µM (inactive) with Malme-3M; 4300 µM (inactive) in the test with OVCAR-5; 1160 µM (inactive) in the test on PC-3; 1550 µM (inactive) in the test with SF-268; 6460 µM (inactive) with SK-MEL-2; 4030 µM (inactive) in the test on SNB-19. The GI50 was 706 µM (inactive) in the test with U-251 and 374 µM (inactive) in the test with UACC-62.
